Columns and labels:
Type in all cases: cell-based
[1] = test system: Type IV collagen (COL4A1); experiment: collagen mRNA synthesis promotion (qPCR), COL4A1 in human skin fibroblasts; details: 24 hours, mRNA by qPCR
Description: (§1) Human skin fibroblasts (NHDF-Neo-Human Dermal Fibroblasts, Neonatal, Lonza, CC-2509) were purchased from Lonza and then used. The purchased cells were cultured in an incubator (37 °C, 5% CO2) using media prepared by mixing Dulbecco Modified Eagle Medium (DMEM, Thermo Fisher Scientific) with 10% fetal bovine serum (FBS) and 1% antibiotics (penicillin streptomycin).
(§2) To analyze the efficacy of promoting collagen mRNA synthesis, human skin fibroblasts were dispensed on a 6-well plate at 1.5×10^5 cells/well and cultured in an incubator (37 °C, 5% CO2) for 24 hours. The substances were added to serum free media at an appropriate concentration/combination, and then the cells were again cultured for 24 hours under the same conditions. Thereafter, mRNA was obtained using an RNA-spin total RNA extraction kit (iNtRON Biotechnology, 17211), and cDNA was synthesized using a cDNA synthesis kit (PhileKorea Technology, ET21100). The expression level of each gene was analyzed by performing qPCR using the synthesized cDNA and taqman probes (assay ID: COL1A1-Hs00164004_m1, COL3A1-Hs00943809_m1, COL4A1-Hs00266237_m1, BNC2-Hs00417700_m1, EDAR-Hs00223468_m1).
as §2, with “COL1A1-Hs00164004_m1,” for “COL1A1-Hs00164004_m1, COL3A1-Hs00943809_m1,”, “sgpp2-Hs00544786_m1), ADIPOQ F primer (5′-[…]-3′), and ADIPOQ R primer (5′-[…]-3′).” for “BNC2-Hs00417700_m1, EDAR-Hs00223468_m1).”

SGPP2 = SGPP2 gene expression (qPCR) in human skin fibroblasts; details: 24 hours, FIG. 15
Description: as §1
as §2, with “COL1A1-Hs00164004_m1,” for “COL1A1-Hs00164004_m1, COL3A1-Hs00943809_m1,”, “sgpp2-Hs00544786_m1), ADIPOQ F primer (5′-[…]-3′), and ADIPOQ R primer (5′-[…]-3′).” for “BNC2-Hs00417700_m1, EDAR-Hs00223468_m1).”
For example, SGPP2 is a gene expressing an enzyme capable of dominantly acting in an inflammation status, and the overactivity of SGPP2 may be more vulnerable to inflammatory signals. […]

Type I collagen (COL1A1) = experiment: collagen mRNA synthesis promotion (qPCR), COL1A1 in human skin fibroblasts; details: 24 hours, mRNA by qPCR
Description: as §1, §2
as §2, with “COL1A1-Hs00164004_m1,” for “COL1A1-Hs00164004_m1, COL3A1-Hs00943809_m1,”, “sgpp2-Hs00544786_m1), ADIPOQ F primer (5′-[…]-3′), and ADIPOQ R primer (5′-[…]-3′).” for “BNC2-Hs00417700_m1, EDAR-Hs00223468_m1).”
as §2, with “PPARGC1B-Hs00993805_m1, SPATA5-Hs01047535_m1, EN1-Hs00154977_m1).” for “COL4A1-Hs00266237_m1, BNC2-Hs00417700_m1, EDAR-Hs00223468_m1).”

PPARGC1B = PPARGC1B gene expression (qPCR) in human skin fibroblasts; details: 24 hours, Non-treated = 1.00
Description: as §1
as §2, with “PPARGC1B-Hs00993805_m1, SPATA5-Hs01047535_m1, EN1-Hs00154977_m1).” for “COL4A1-Hs00266237_m1, BNC2-Hs00417700_m1, EDAR-Hs00223468_m1).”
For example, PPARGC1B, one of co-activators of peroxisome proliferator activated receptor-γ (PPARγ), has been known to be associated with melanogenesis in the skin. PPARGC1B has been reported to be involved in the wrinkle formation by mitochondrial dysfunction and the wrinkle reduction by mitochondrial function recovery (Cell Death & Disease volume 9, Article number: 735 (2018)). Therefore, the increased expression level of PPARGC1B serves to restore the function of mitochondria, which are cell energy producing organelles, thereby preventing and recovering from nasolabial wrinkles, which are deeply indented wrinkles accumulated over a relatively long time. That is, it can be seen that the increase in expression level of PPARGC1B by the treatment with the substances of the present invention is effective in wrinkle improvement.

SPATA5 = SPATA5 gene expression (qPCR) in human skin fibroblasts; details: 24 hours, Untreated = 1.00
Description: as §1
as §2, with “PPARGC1B-Hs00993805_m1, SPATA5-Hs01047535_m1, EN1-Hs00154977_m1).” for “COL4A1-Hs00266237_m1, BNC2-Hs00417700_m1, EDAR-Hs00223468_m1).”
Although the role of SPATA5 in the skin has not been studied, SPATA5 may play a role in mitochondrial function and ATP production. […]

ADIPOQ = ADIPOQ gene expression (qPCR) in human skin fibroblasts; details: 24 hours, FIG. 16
Description: as §1
as §2, with “COL1A1-Hs00164004_m1,” for “COL1A1-Hs00164004_m1, COL3A1-Hs00943809_m1,”, “sgpp2-Hs00544786_m1), ADIPOQ F primer (5′-[…]-3′), and ADIPOQ R primer (5′-[…]-3′).” for “BNC2-Hs00417700_m1, EDAR-Hs00223468_m1).”
As another example, ADIPOQ, a gene expressing adiponectin, is a substance primarily secreted in adipose tissue, and ADIPOQ in the skin is mainly known for anti-inflammatory effects thereof. […]

[2] = test system: Type III collagen (COL3A1); experiment: collagen mRNA synthesis promotion (qPCR), COL3A1 in human skin fibroblasts; details: 24 hours, mRNA by qPCR
Description: as §1
as §2, with “Thereafter, mRNA was obtained using an RNA-spin total RNA extraction kit (iNtRON Biotechnology, 17211), and cDNA was synthesized using a cDNA synthesis kit (PhileKorea Technology, ET21100).” left out
To analyze the efficacy of promoting collagen mRNA synthesis, human skin fibroblasts were dispensed on a 6-well plate at 1.5×10^5 cells/well and cultured in an incubator (37 °C, 5% CO2) for 24 hours. […] The expression level of each gene was analyzed by performing qPCR using the synthesized cDNA and taqman probes (assay ID: COL1A1-Hs00164004_m1, COL3A1-Hs00943809_m1, PPARGC1B-Hs00993805_m1, SPATA5-Hs01047535_m1, EN1-Hs00154977_m1).

EDAR = EDAR gene expression (qPCR) in human skin fibroblasts; details: 24 hours, FIG. 7
Description: as §1
as §2, with “EDAR-Hs00223468_m1). […]” for “EDAR-Hs00223468_m1).”

BNC2 = BNC2 gene expression (qPCR) in human skin fibroblasts; details: 24 hours, FIG. 6
Description: as §1, §2
The degrees of fine wrinkle improvement by the substances of the present invention were investigated on the basis of the polymorphism markers showing correlations with the degree of skin fine wrinkles, obtained through Example 1. […]

| Molecule | expression of Type IV collagen (COL4A1) [1] | expression of Type I collagen (COL1A1) (Type I collagen (COL1A1)) | further results |
| --- | --- | --- | --- |
| COc1cc(/C=C/C(=O)NCCc2c[nH]c3ccc(O)cc23)ccc1O [N-feruloylserotonin] | promoted the expression |  | expression of SGPP2 (SGPP2): inhibited the expression |
| CC12CCC(CC1=O)C2(C)C (centres unmarked) [camphor] |  | promoted the expression | Gene expression level (PPARGC1B) (PPARGC1B): 2.63 |
| Cc1ncc(CO)c(CO)c1O.Cl [pyridoxine HCl] |  | promoted the expression | Expression level of gene (SPATA5) (SPATA5): 1.36 |
| O=C[C@@H](O)[C@@H](O)[C@H](O)[C@H](O)COP(=O)([O-])[O-].[Na+].[Na+] [sodium mannose phosphate, D-mannose-6-phosphate sodium salt] |  | promoted the expression | Gene expression level (PPARGC1B) (PPARGC1B): 1.53 |
| Cc1cc(O)c2c(c1)C(=O)c1cc(O)cc(O)c1C2=O [emodin] | promoted the expression | promoted the expression | expression of ADIPOQ (ADIPOQ): increased the expression |
| COc1ccc(-c2coc3cc(O)ccc3c2=O)cc1 [formononetin] | promoted the expression | promoted the expression | expression of ADIPOQ (ADIPOQ): increased the expression |
| C=C(C)[C@@H]1CC[C@]2(C)CC[C@@H]3[C@H](CC[C@H]4[C@@]3(C)CC[C@H]3C(C)(C)[C@@H](O)CC[C@]43C)[C@@H]12 [lupeol] |  |  | expression of Type III collagen (COL3A1) [2]: promoted the expression; expression of EDAR (EDAR): increased the expression |
| O=C(CCc1ccc(O)cc1)c1c(O)cc(O)cc1O [phloretin] | promoted the expression | promoted the expression | expression of Type III collagen (COL3A1) [2]: promoted the expression; expression of BNC2 (BNC2): inhibited the expression |
| NC[C@H]1CC[C@H](C(=O)O)CC1 [tranexamic acid, reference compound] |  | promoted the expression | Expression level of gene (SPATA5) (SPATA5): 1.21 |
| fucoidan | promoted the expression |  | expression of SGPP2 (SGPP2): inhibited the expression |
| NC(=O)c1cccnc1 [niacinamide] |  | promoted the expression | Gene expression level (PPARGC1B) (PPARGC1B): 1.52 |

— patent US20260375233A1, “COMPOSITION FOR IMPROVING SKIN WRINKLES” (LG H&H CO., LTD., priority 2022, published 2026)
